From US20110070232A1, “Combination Therapy with an Antitumor Alkaloid” (Pharma Mar, S.A., priority 2008, published 2011)
Where two headings read alike, the source gives them in different places.

How the values were obtained:
[1] = test system: Hs746T tumors; format: in vivo, mice
Source text: Female athymic nude mice (Harlan Sprague Dawley, Madison, Wis.) were utilized for all experiments. Animals were housed in ventilated rack caging with food and water ad libitum. The mice were acclimated for at least 5 days prior to tumor implantation with a tumor cell suspension.
The tumor model used in these studies was Hs746T cell line, which was obtained from the ATCC (Manassas, Va.).
Treatments were initiated on DPI 15.
5-FU was provided as a solution which was further diluted with water for injection.
(§1) Tumor size measurements were recorded twice weekly from the treatment initiation until the termination of the study.
(§2) Mean, standard deviation and standard error of the mean were determined for tumor volume for all animal groups at all assessments. Student's t test was performed on tumor volumes at each measurement day, including at the end of the study, to determine whether there were any statistically significant differences between combination treatment groups and single monotherapy treatment groups.

[2] = test system: MRI-H-254 tumors; format: in vivo, mice
Experimental: (§3) Female athymic nude mice (Harlan Sprague Dawley, Madison, Wis.) were utilized for all experiments. Animals were housed in ventilated rack caging with food and water ad libitum. The mice were acclimated for at least 5 days prior to tumor implantation with tumor fragments.
Bacterial culture was taken on cells used to implant the study.
Treatments were initiated on DPI 20.
5-FU was provided in the form of injection vials which was diluted with 0.9% sterile Saline.
as §1, §2

[3] = test system: MRI-H-254 tumors; format: in vivo, mice; remark: listed apart in the source
Experimental: as §3
Treatments were initiated on DPI 16.
as §1, §2

[4] = test system: BT-474 (breast cancer) cell line; assay: IC50 determination, MIT (tetrazolium) assay, 72 h (Example 18); format: cell-based; conditions: Homo sapiens, BT-474, 72 h
Experimental: BT-474 cells were grown in RPMI supplemented with 1% ITS (insulin, transferrin and selenium), 10% Fetal Bovine Serum (FBS), 1% penicillin/streptomycin and 2 mM L-glutamine.
Before plating, cell cultures were trypsinized and cell number estimated using an automated flow cytometer.
Cells were harvested and seeded in 96 well microtiter plates at the appropriate cell density (5,000-10,000 cells) in 150 μL of media and incubated for 24 hours to allow the cells to attach before drug addition.
After the incubation period (72 hours), 50 μL of MIT solution was added to each microtiter well and incubated for further 8 hours at 37° C. The culture medium was then removed and 50 μl, of DMSO were added to dissolve the MIT crystals. Optical densities were read at 540 nm on spectrophotometer microplate reader.
IC50 values were calculated from an average of two to four assays for each of the test agents.

[5] = test system: NCI-H460 tumors; format: in vivo, mice; conditions: PM00104 0.9 mg/kg/day IV and/or Gemcitabine 180 mg/kg/day IP
Source text: Female athymic nude mice (Harlan Sprague Dawley, Madison, Wis.) were utilized for all experiments. Animals were housed in ventilated rack caging with food and water ad libitum. The mice were acclimated for at least 5 days prior to tumor implantation.
The tumor model used in this study was NCI-H460 cell line which is a human NSCLC cell line obtained from the ATCC (Manassas, Va.). […] Cells from in vitro passage 9 were those implanted SC into study mice.
Treatments were initiated on DPI 8.
Tumor size measurements were recorded 2-3 times/week from the treatment initiation until the termination of the study.
as §2

[6] = PM00104 0.9, 5-FU 50 (DPI 15) then 100 (DPI 22 & 29), irinotecan 20, doxorubicin 6 mg/kg/day
[7] = PM00104 0.90 IV, 5-FU 100 IP mg/kg/day (G2, G3, G5), DPI 20, 27, 34
[8] = day 16, PM00104 0.90, cisplatin 5, irinotecan 18, paclitaxel 25 mg/kg/day
[9] = day 20, PM00104 0.90, cisplatin 5, irinotecan 18, paclitaxel 25 mg/kg/day
[10] = day 23, PM00104 0.90, cisplatin 5, irinotecan 18, paclitaxel 25 mg/kg/day
[11] = day 26, PM00104 0.90, cisplatin 5, irinotecan 18, paclitaxel 25 mg/kg/day
[12] = day 29, PM00104 0.90, cisplatin 5, irinotecan 18, paclitaxel 25 mg/kg/day
[13] = day 33, PM00104 0.90, cisplatin 5, irinotecan 18, paclitaxel 25 mg/kg/day
[14] = day 40, PM00104 0.90, cisplatin 5, irinotecan 18, paclitaxel 25 mg/kg/day
[15] = day 48, PM00104 0.90, cisplatin 5, irinotecan 18, paclitaxel 25 mg/kg/day

COc1c(C)cc2c(c1O)[C@@H]1[C@@H]3Cc4c(OC(C)=O)c(C)c5c(c4[C@H](CNC(=O)/C=C/c4cccc(C(F)(F)F)c4)N3[C@@H](O)[C@H](C2)N1C)OCO5 [PM00104]
% T/C on day 15 [1, 6]: 106.6% | % T/C on day 19 [1, 6]: 55.8% | % T/C on day 22 [1, 6]: 60.9% | % T/C on day 26 [1, 6]: 54.2% | % T/C on day 29 [1, 6]: 58.6% | % T/C on day 33 [1, 6]: 80.8% | % Inhibition ([1]; day 15, PM00104 0.9 and doxorubicin 6 mg/kg/day): −6.6% | % Inhibition ([1]; day 15, PM00104 0.9 and irinotecan 20 mg/kg/day): −6.6% | % Inhibition ([1]; day 15, mg/kg/day: PM00104 0.90 IV, 5-FU 50 at DPI 15 and 100 at DPI 22 & 29 IP): −6.6% | % Inhibition ([1]; day 19, PM00104 0.9 and doxorubicin 6 mg/kg/day): 44.2% | % Inhibition ([1]; day 19, PM00104 0.9 and irinotecan 20 mg/kg/day): 44.2% | % Inhibition ([1]; day 19, mg/kg/day: PM00104 0.90 IV, 5-FU 50 at DPI 15 and 100 at DPI 22 & 29 IP): 44.2% | % Inhibition ([1]; day 22, PM00104 0.9 and doxorubicin 6 mg/kg/day): 39.1% | % Inhibition ([1]; day 22, PM00104 0.9 and irinotecan 20 mg/kg/day): 39.1% | % Inhibition ([1]; day 22, mg/kg/day: PM00104 0.90 IV, 5-FU 50 at DPI 15 and 100 at DPI 22 & 29 IP): 39.1% | % Inhibition ([1]; day 26, PM00104 0.9 and doxorubicin 6 mg/kg/day): 45.8% | % Inhibition ([1]; day 26, PM00104 0.9 and irinotecan 20 mg/kg/day): 45.8% | % Inhibition ([1]; day 26, mg/kg/day: PM00104 0.90 IV, 5-FU 50 at DPI 15 and 100 at DPI 22 & 29 IP): 45.8% | % Inhibition ([1]; day 29, PM00104 0.9 and doxorubicin 6 mg/kg/day): 41.4% | % Inhibition ([1]; day 29, PM00104 0.9 and irinotecan 20 mg/kg/day): 41.4% | % Inhibition ([1]; day 29, mg/kg/day: PM00104 0.90 IV, 5-FU 50 at DPI 15 and 100 at DPI 22 & 29 IP): 41.4% | % Inhibition ([1]; day 33, PM00104 0.9 and doxorubicin 6 mg/kg/day): 19.2% | % Inhibition ([1]; day 33, PM00104 0.9 and irinotecan 20 mg/kg/day): 19.2% | % Inhibition ([1]; day 33, mg/kg/day: PM00104 0.90 IV, 5-FU 50 at DPI 15 and 100 at DPI 22 & 29 IP): 19.2% | % T/C on day 20 [2, 7]: 98.7% | % T/C on day 23 [2, 7]: 95.9% | % T/C on day 26 [2, 7]: 83.7% | % T/C on day 30 [2, 7]: 75.3% | % T/C on day 34 [2, 7]: 53.1% | % T/C on day 36 [2, 7]: 46.5% | % T/C on day 43 [2, 7]: 26.9% | % T/C on day 49 [2, 7]: 36.7% | % T/C on day 56 [2, 7]: 50.6% | % T/C on day 63 [2, 7]: 81.3% | % Inhibition ([2]; day 20, PM00104 0.9 and 5-FU 50 mg/kg/day): 1.3% | % Inhibition ([2]; day 20, PM00104 0.9 and 5-FU 100 mg/kg/day): 1.3% | % Inhibition ([2]; day 23, PM00104 0.9 and 5-FU 50 mg/kg/day): 4.1% | % Inhibition ([2]; day 23, PM00104 0.9 and 5-FU 100 mg/kg/day): 4.1% | % Inhibition ([2]; day 26, PM00104 0.9 and 5-FU 50 mg/kg/day): 16.3% | % Inhibition ([2]; day 26, PM00104 0.9 and 5-FU 100 mg/kg/day): 16.3% | % Inhibition ([2]; day 30, PM00104 0.9 and 5-FU 50 mg/kg/day): 24.7% | % Inhibition ([2]; day 30, PM00104 0.9 and 5-FU 100 mg/kg/day): 24.7% | % Inhibition ([2]; day 34, PM00104 0.9 and 5-FU 50 mg/kg/day): 46.9% | % Inhibition ([2]; day 34, PM00104 0.9 and 5-FU 100 mg/kg/day): 46.9% | % Inhibition ([2]; day 36, PM00104 0.9 and 5-FU 50 mg/kg/day): 53.5% | % Inhibition ([2]; day 36, PM00104 0.9 and 5-FU 100 mg/kg/day): 53.5% | % Inhibition ([2]; day 43, PM00104 0.9 and 5-FU 50 mg/kg/day): 73.1% | % Inhibition ([2]; day 43, PM00104 0.9 and 5-FU 100 mg/kg/day): 73.1% | % Inhibition ([2]; day 49, PM00104 0.9 and 5-FU 50 mg/kg/day): 63.3% | % Inhibition ([2]; day 49, PM00104 0.9 and 5-FU 100 mg/kg/day): 63.3% | % Inhibition ([2]; day 56, PM00104 0.9 and 5-FU 50 mg/kg/day): 49.4% | % Inhibition ([2]; day 56, PM00104 0.9 and 5-FU 100 mg/kg/day): 49.4% | % Inhibition ([2]; day 63, PM00104 0.9 and 5-FU 50 mg/kg/day): 18.7% | % Inhibition ([2]; day 63, PM00104 0.9 and 5-FU 100 mg/kg/day): 18.7% | % Inhibition ([3]; day 16, PM00104 0.90, cisplatin 3, irinotecan 10, paclitaxel 12.5 mg/kg/day): 2.0% | % Inhibition [3, 8]: 2.0% | % T/C [3, 8]: 98.0% | % Inhibition ([3]; day 20, PM00104 0.90, cisplatin 3, irinotecan 10, paclitaxel 12.5 mg/kg/day): 6.1% | % Inhibition [3, 9]: 6.1% | % T/C [3, 9]: 93.9% | % Inhibition ([3]; day 23, PM00104 0.90, cisplatin 3, irinotecan 10, paclitaxel 12.5 mg/kg/day): 43.9% | % Inhibition [3, 10]: 43.9% | % T/C [3, 10]: 56.1% | % Inhibition ([3]; day 26, PM00104 0.90, cisplatin 3, irinotecan 10, paclitaxel 12.5 mg/kg/day): 59.4% | % Inhibition [3, 11]: 59.4% | % T/C [3, 11]: 40.6% | % Inhibition ([3]; day 29, PM00104 0.90, cisplatin 3, irinotecan 10, paclitaxel 12.5 mg/kg/day): 61.7% | % Inhibition [3, 12]: 61.7% | % T/C [3, 12]: 38.3% | % Inhibition ([3]; day 33, PM00104 0.90, cisplatin 3, irinotecan 10, paclitaxel 12.5 mg/kg/day): 72.0% | % Inhibition [3, 13]: 72.0% | % T/C [3, 13]: 28.0% | % Inhibition ([3]; day 40, PM00104 0.90, cisplatin 3, irinotecan 10, paclitaxel 12.5 mg/kg/day): 81.8% | % Inhibition [3, 14]: 81.8% | % T/C [3, 14]: 18.2% | % Inhibition ([3]; day 48, PM00104 0.90, cisplatin 3, irinotecan 10, paclitaxel 12.5 mg/kg/day): 84.4% | % Inhibition [3, 15]: 84.4% | % T/C [3, 15]: 15.6% | IC50 [4]: 1 nM | % T/C on day 8 [5]: 103.0% | % T/C on day 11 [5]: 98.5% | % T/C on day 14 [5]: 85.6% | % T/C on day 18 [5]: 90.8% | % T/C on day 21 [5]: 81.2% | % T/C on day 25 [5]: 76.7% | % T/C on day 28 [5]: 77.3%
